Measured values from publication PMC3351437, “Skin-Targeted Inhibition of PPAR β/δ by Selective Antagonists to Treat PPAR β/δ – Mediated Psoriasis-Like Skin Disease In Vivo” (PLoS ONE, 2012).
Like-named read-outs stand apart in the source and are kept apart here.

Assays:
shaved dorsal skin = experiment: Skin histology after one week of topical application (inflammatory changes); format: in vivo, C57Bl/6j wild type mice; conditions: for number of dermal nuclei per high power field: vs vehicle-only treated skin; for epidermal hyperplasia induced by antagonist: twice daily for one week
Protocol: We next determined the local concentrations in skin at steady state after prolonged topical application. […] Skin samples were then extracted and analysed by mass spectrometry for concentration determination as well as processed for histology. […] 90 min (cf. fig. 2b). […] Infrequently, we noted apoptotic epidermal keratinocytes (inset, middle row of H&E sections). Since these cells were also found in transgenic PPAR β/δ mice treated with the agonist only (figure S1), the exact underlying cause is unclear but unlikely to underlie the treatment effect of the antagonist creams.
Figure 4 Absence of inflammatory changes induced by PPAR β/δ antagonists in skin after topical application. […] Mice were sacrificed 1 h after the last ointment application and skin tissue processed for H&E based histology and mass spectrometry, as described in Methods. Data shown represent average ± s.d. of n = 3 mice per data point (left) treated with GSK (blue columns) or compound 3 h (red). Representative histology sections of all treated mice are shown on right. […] Horizontal bar represents 5 µm.
Mice were sacrificed, skin samples obtained and processed for H&E based histology as described. All samples were photographed at 200× magnification. Epidermal thickness was measured for all slides by a blinded observer at perpendicular angle to the basement membrane. The absence of variable planes of tissue sectioning as a confounder for apparent epidermal thickness was ruled out by verifying visible perpendicular insertion of hair follicles into the epidermis. For each sample, two measurements were taken in two separately photographed non-adjacent sections of the H&E stained skin sample.

[1] = Skin concentration after topical application (UPLC/mass spectrometry); format: in vivo, C57Bl/6j wild type mice; conditions: for local concentration in skin at steady state: twice daily for seven days, even for the lower dose used (0.2%), 1 h after last application
Protocol: (§1) 50 µL of cardiac blood were diluted 1∶2 (v∶v) with milipore water and snap frozen immediately. Previously treated skin segments were shaved, tape-stripped three times to remove residual hair and non-absorbed ointment on the surface, and then snap frozen in liquid nitrogen. Frozen skin was ground and ten times the volume of methanol-water (1∶1 v/v) was added per weight unit of skin. A minimum of 20 mg of skin was used per each sample. Samples were homogenized with a Covaris S2 acoustic homogeniser. For both cardiac blood and skin homogenate, proteins were precipitated by adding 3 volumes of acetonitrile containing a suitable internal standard. All samples were then centrifuged for 10 minutes at 2800 rpm before transfer of 200 µL of supernatant into a 96 well plate and 100 µL of milliQ water added. Calibration curves were constructed in either untreated homogenised skin or blood to cover at least 3 orders of magnitude (1–2000 ng/mL) and extracted as for aforementioned study samples. All cardiac blood, skin samples and standards were then investigated by mass spectrometry as described below. For calculation of total blood volume, mice were weighed and an average blood volume of 7% (mL/g) of body mass was assumed.
(§2) An Acquity ultra high performance liquid chromatography (UPLC) system; consisting of an autosampler, the Acquity UPLC Sample Manager with Sample Organiser, a pump, the Acquity UPLC Binary Solvent Manager, an in-built column oven, a UV detector, the Acquity UPLC Photo Diode Array) and a Quattro Premier XE triple quadrupole mass spectrometer (Waters, UK). […] The analytical column was an Acquity UPLC BEH C18, 2.1 mm i.d. ×50 mm length, 1.7 µm particle size (Waters, UK). No guard column was used, but a vanguard […].
Mobile phase A was Milli-Q reverse phase de-ionised water with formic acid (0.1%, v∶v), mobile phase B was acetonitrile with formic acid (0.1%, v∶v). Mobile phase was delivered at a flow rate of 0.6 mL/min. […] Finally mobile phase B was returned to 5% over 0.1 min and maintained at this composition for 0.4 min. Total run time 3 min. […]

[2] = Storage stability at room temperature and light exposure; format: physicochemical
other PPAR isoforms = test system: other PPAR isoforms; set-up: method as in references listed in Figure 1 / ref 13; conditions: in vitro data taken from literature, ref references listed in Figure 1 / ref 13, cited from earlier work
[3] = Blood concentration after topical application (UPLC/mass spectrometry); format: in vivo, C57Bl/6j wild type mice; conditions: for total amount of detectable compound in blood as fraction of total drug applied: 1 h after topical application, blood volume assumed 7% of body mass
Protocol: as §1, §2
(§3) Mobile phase A was Milli-Q reverse phase de-ionised water with formic acid (0.1%, v∶v), mobile phase B was acetonitrile with formic acid (0.1%, v∶v). Mobile phase was delivered at a flow rate of 0.6 mL/min. […] Finally mobile phase B was returned to 5% over 0.1 min and maintained at this composition for 0.4 min. Total run time 3 min.
(§4) The entire flow was introduced into the Mass spectrometer. The autosampler was set at 4°C and an injection voloume of 5 µL was used (partial loop). […] An in-house proprietary internal standard was used for determination of all 3 analytes.

[4] = Drug quantification in skin and blood of diseased mice (mass spectrometry); format: in vivo, PPAR β/δ transgenic mice; conditions: for concentration at 12 h: 12 h after the last cream application
Protocol: as §1, §2, §3, §4

[5] = set-up: method as in PMID 17975020; conditions: cited from earlier work
[6] = test system: HB-EGF, IL1b, LCE3e/LCE3f expression; experiment: Real-time PCR of PPAR β/δ target genes in skin; format: in vivo, PPAR β/δ transgenic mice
Description: Skin was processed by removing subcutaneous tissue and small skin pieces were snap frozen in liquid nitrogen. Frozen skin was ground and RNA was extracted using the NucleoSpin RNA/Protein kit from Macherey-Nagel. cDNA synthesis was done with the SuperScript Vilo cDNA synthesis kit from Invitrogen. Gene expression levels were quantified using TaqMan-based real-time PCR using Assays-on-Demand kits obtained from Applied biosystems according to the manufacturer's instruction and quantification performed as calibrated to the internal housekeeping gene GAPDH (LCE3f: Mm02605425, Il1β: Mm01336189, Hb-EGF: Mm00439305).

[7] = Drug solubility in ointment, absence of crystals by polarised microscopy; format: physicochemical; conditions: Hydromol ointment with DMSO
Protocol: These included drug incorporation into liquified vehicle at 70°C, pre-disolvement in DMSO, ethanol, isopropanol, polyethyene glycol 300, and olive oil followed by vehicle incorporation, as well as a variety of vehicles (liquid paraffin, Hydromol ointment, aqueous ointment BP). Drug solubility was assessed using a previously reported method relying on the absence of crystals detectable by polarised microscopy.
All PPAR β/δ antagonists were custom-synthesized by AF-Chempharm (UK). […] Compound 3 h was pre-dissolved in DMSO, left at room temperature for 20 min at low agitation and then incorporated into Hydromol ointment using a melamin bowl to yield final concentrations of 0.5% (w/w) 3 h, and 5% (w/w) of DMSO, respectively. […] Vehicle-only contro ointment was prepared exactly as GSK0660 ointment while omitting the chemical itself. Ointments were stored in airtight containers at 4°C in the dark and made fresh once a week.

[8] = test system: PPAR β/δ mediated skin disease; experiment: Control of skin disease induced by i.p. GW501516, ointment at different frequencies; format: in vivo, PPAR β/δ transgenic mice
Protocol: All animal studies reported here were subject to approval of Tayside Research Ethics Committee, and are conducted in accordance with UK Home Office procedures (project licence 60/3800, licence holder JF). Breeding of PPAR β/δ transgenic mice and genotyping were all carried out as described previously. […]
(§5) Mice were sacrificed, skin samples obtained and processed for H&E based histology as described. All samples were photographed at 200× magnification. Epidermal thickness was measured for all slides by a blinded observer at perpendicular angle to the basement membrane. […] For each sample, two measurements were taken in two separately photographed non-adjacent sections of the H&E stained skin sample.

PPARβ/δ [9] = conditions: cited from earlier work; for IC50: in vitro data taken from literature, ref references listed in Figure 1, read-out: IC50 PPARβ/δ binding
PPARβ/δ [10] = conditions: in vitro data taken from literature; ref references listed in Figure 1; read-out: EC50 PPARβ/δ competitive antagonism; cited from earlier work
[11] = test system: PPAR β/δ mediated psoriasis-like skin disease; experiment: Prevention of epidermal hyperplasia, agonist GW501516 and antagonist both topical; format: in vivo, PPAR β/δ transgenic mice; conditions: antagonist ointment once per day, GW501516 0.1% ointment five times per week, 20 days
Protocol: as §5

psoriasis (PASI scores) = test system: psoriasis (PASI scores); set-up: method as in PMID 15479756; conditions: systemic administration; cited from earlier work
PPAR β/δ = test system: PPAR β/δ; set-up: method as in PMID 17488971; conditions: cited from earlier work
psoriasis = test system: psoriasis; set-up: method as in PMID 12673084; conditions: cited from earlier work

COC(=O)c1sccc1S(=O)(=O)Nc1ccc(Nc2ccccc2)cc1OC [GSK0660]
apoptotic epidermal keratinocytes (shaved dorsal skin; one week, H&E): apoptotic looking cells
number of dermal nuclei per high power field (shaved dorsal skin; one week): unchanged as compared to vehicle-only treated skin
epidermal hyperplasia induced by antagonist (shaved dorsal skin; H&E): neither antagonist produced notable epidermal hyperplasia
half-life ([1]; C57Bl/6j, mouse, topical, 42 mg ointment applied to dorsal skin (figure 3)): ~1.5 h
local concentration in skin at steady state [1]: high local concentrations
stability on storage (colour change) [2]: visible colour change from yellow to green
Activity on other PPAR isoforms (other PPAR isoforms): Not active at 10 μM
total amount of detectable compound in blood as fraction of total drug applied [3]: less than 0.01%
drug accumulation in blood ([3]; blood measured for 24 h after drug application): no evidence of drug accumulation
total drug detectable in blood as fraction of total drug applied ([3]; over 24 h after drug application (figure 2b)): less than 0.01%
concentration at 12 h ([4]; PPAR β/δ transgenic, mouse, skin, topical, after 20 days of treatment, read-out: concentration in skin tissue): 48 ± 18 ng/g
concentration at 12 h ([4]; PPAR β/δ transgenic, mouse, whole blood, topical, after 20 days, threshold of detection, read-out: concentration in blood): < 25 nM
bioavailability upon systemic administration [5]: lack of bioavailability upon systemic administration
reversal of IL1b expression ([6]; qPCR, oral GW501516, ointment twice daily three weeks): only observed using the ointment containing GSK0660
drug concentration up to which the optimised ointment formulation is devoid of drug crystals [7]: up to 2 % (w/w)

O=C(NCCS(=O)(=O)c1ccc(C(F)(F)F)cn1)c1ccc(Cl)cc1 [GSK3787]
range of therapeutic activity ([8]; H&E of treated area and its edge (figure S2)): efficacy was limited to the area of cream application
reducing the amount of dermal infiltrate ([8]; even when applied only 3× per week (fig. 7b)): as effective as GSK0660
preventing epidermal hyperplasia ([8]; even when applied only 3× per week, comparator twice daily (fig. 7a)): as effective as GSK0660
Activity on other PPAR isoforms (other PPAR isoforms): Active on PPARγ at 1 μM
concentration at 20 days ([3]; C57Bl/6j, mouse, whole blood, topical, healthy mice after 20 days of twice-daily treatment, n = 3): 50.2 ± 25.7 nM
mode of receptor inactivation (PPARβ/δ [9]): irreversibly inactivates the receptor by forming a covalent bond
IC50 (PPARβ/δ [9]): 6.7 nM
tissue level of unmodified drug in lesional skin ([4]; 16 h after the final application): 240 ± 116 nmol/g of tissue
concentration at 16 h ([4]; PPAR β/δ transgenic, mouse, whole blood, topical, inflamed skin, 16 h after last cream application, read-out: concentration in blood at the end of the experiment): 445 ± 429 nM
EC50 (PPARβ/δ [10]): 100 nM
expression of PPAR β/δ target genes LCE3f, IL1-beta, and HBEGF ([6]; twice-daily versus three times weekly application (fig. 8b)): suppression

Cc1cc(SCc2sc(-c3ccc(C(F)(F)F)cc3)nc2C)ccc1OCC(=O)O [GW501516]
systemic absorption relative to the antagonists ([3]; 1 h post application, ointment concentrated 10-fold less (0.1%)): 100 fold
peak serum concentration ([3]; 1 h post topical application, 0.1% ointment): 400 nM

CCCCOc1ccc(-c2ccc(C(=O)O)cc2C)cc1CNC(=O)c1ccc(C(F)(F)F)cc1F [compound 3 h]
number of dermal nuclei per high power field (shaved dorsal skin; one week): unchanged as compared to vehicle-only treated skin
epidermal hyperplasia induced by antagonist (shaved dorsal skin; H&E): neither antagonist produced notable epidermal hyperplasia
local concentration in skin at steady state [1]: high local concentrations
Activity on other PPAR isoforms (other PPAR isoforms; listed as Compound 3 h): lack of activity on other PPAR isoforms
Activity on other PPAR isoforms (other PPAR isoforms; listed as Compound 3h): Not active at 1 μM
psoriasis-like epidermal hyperplasia induced by GW501516 [11]: significantly attenuated
peak systemic concentration compared with reported EC50/IC50 ([3]; 1 h after topical application of ointment): slightly above the in vitro determined EC50 value
total amount of detectable compound in blood as fraction of total drug applied [3]: less than 0.01%
IC50 (PPARβ/δ [9]): 10 nM
Ki (PPARβ/δ [9]; low reported Ki): 11 nM
EC50 (PPARβ/δ [10]): 11 nM
drug concentration up to which the optimised ointment formulation is devoid of drug crystals [7]: up to 2 % (w/w)

CCc1ccc(CCOc2ccc(CC3SC(=O)NC3=O)cc2)nc1 (centres unmarked) [pioglitazone]
effect on PASI scores (psoriasis (PASI scores)): no marked reduction of PASI scores

CN(CCOc1ccc(CC2SC(=O)NC2=O)cc1)c1ccccn1 (centres unmarked) [rosiglitazone]
activation of PPAR β/δ (PPAR β/δ): can also activate PPAR β/δ
effect of topical application on psoriasis (psoriasis): showed no effect

CCCCCCCCCCCCCCSCC(=O)O [tetradecylthioacetic acid (TTA), tetradecylthioacetic acid]
effect of topical application on psoriasis (psoriasis): showed no effect
